The values that follow are results of earlier work, collected in patent US20070142447A1, “Veterinary composition comprising an arylpyrazole and a nitroenamine with enhanced antiparasitic activity” (Intervet International B.V., priority 2004, published 2007).

The conditions of data set [1]: cats.
For data set [2] the following is noted: dogs.
Another data set relates to fleas. The settings on record: after 72 hours.

Each structure is given as a SMILES string. Like-named read-outs stand apart in the source and are kept apart here.

For the compound `CCN(Cc1ccc(Cl)nc1)/C(=C/[N+](=O)[O-])NC` [nitenpyram, (E)-N-(6-chloro-pyridin-3-ylmethyl)-N-ethyl-N-methyl-2-methyl-2-nitrovinylidenediamine], in data set [1], the “half-life in the blood” value was 7.7 h and the mean residence time is 10.2 h. In addition, in data set [2], the “half-life in the blood” value is 2.8 h and the mean residence time is 4.1 h. In the data set on fleas, the “lethality of nitenpyram levels in host blood to fleas” value is “not lethal to fleas”.
